From ChEMBL document CHEMBL4610074, “Somuncurins: Bioactive Peptides from the Skin of the Endangered Endemic Patagonian Frog Pleurodema somuncurense” (J Nat Prod, 2020)
The source made the active and inactive calls. The rule behind the calls is not given here.

Key:
Escherichia coli = test: Antibacterial activity against Escherichia coli ATCC 25922 incubated for 24 hrs under aerobic condition; assay type: functional; settings: ATCC 25922, 24 h
Staphylococcus aureus = test: Antibacterial activity against Staphylococcus aureus ATCC 29213 incubated for 24 hrs under aerobic condition; assay type: functional; settings: ATCC 29213, 24 h
Lipid bilayer [1] = test: Binding affinity to Escherichia coli lipid extract large unilamellar vesicles incubated for 30 mins by laser-doppler technique
Lipid bilayer [2] = test: Induction of membrane disruption in Escherichia coli lipid extract large unilamellar vesicles assessed as carboxyfluorescein leakage at 640 ug/ml by fluorescence assay; assay type: functional
[3] = (§1) Hemolytic activity in human RBC at 180 uM measured after 1 hr relative to control; assay type: ADME, cell-based, Erythrocyte; settings: red blood cells (erythrocytes), read-out: Activity
Lipid bilayer [4] = test: Induction of membrane disruption in PC/bovine brain SPM/cholesterol large unilamellar vesicles assessed as carboxyfluorescein leakage at 640 ug/ml by fluorescence assay
[5] = Cytotoxicity against human MDM cells after 24 hrs by resazurin dye based fluorescence assay; assay type: cell-based
Lipid bilayer [6] = test: Induction of rearrangement in Escherichia coli lipid extract large unilamellar vesicles assessed as altered colloidal property at 140 ug/ml to 640 ug/ml by dynamic light scattering analysis; assay type: functional
Lipid bilayer [7] = test: Binding affinity to Escherichia coli lipid extract large unilamellar vesicles assessed as change in tryptophan emission Spectra incubated for 30 mins by spectrofluorometric method
Lipid bilayer [8] = test: Induction of lipid aggregation in PC/bovine brain SPM/cholesterol large unilamellar vesicles at 140 ug/ml to 640 ug/ml by dynamic light scattering analysis
Lipid bilayer [9] = test: Induction of pore formation in Escherichia coli lipid extract giant unilamellar vesicles at 640 ug/ml after 25 mins by fluorescence confocal microscopy; assay type: functional
[10] = Effect on LPS-induced ROS production in human CHME3 cells measured for 30 mins by microscopic method; assay type: ADME, cell-based; settings: 0.5 h
Lipid bilayer [11] = test: Induction of lipid aggregation in Escherichia coli lipid extract large unilamellar vesicles at 270 ug/ml by dynamic light scattering analysis; assay type: functional
Lipid bilayer [12] = test: Induction of membrane disruption in Escherichia coli lipid extract large unilamellar vesicles assessed as carboxyfluorescein leakage at 250 ug/ml by fluorescence assay; assay type: functional
Erythrocyte = test: as §1; assay type: ADME, cell-based; settings: erythrocyte, 1 h, 180 µM

Row | Substance | MIC (Escherichia coli) | MIC (Staphylococcus aureus) | Activity (Lipid bilayer [1]) | Activity [5] | other results
1 | H-DLASLARLYALAR-NH2 | > 700 µg/mL | > 700 µg/mL | – | – | –
2 | H-DLLNGLLNPVLGIANGLTGGLVKK-NH2 | > 700 µg/mL | > 700 µg/mL | – | – | –
3 | H-FIIWPLRYRK-NH2 | 180 µM | 360 µM | 36 mV | Non-Toxic | Activity (Lipid bilayer [2]): 100%; hemolysis at 1 h, 180 µM [3]: < 5%; Activity (Lipid bilayer [4]): 20%; Activity (Lipid bilayer [6]): Active; Activity (Lipid bilayer [7]): inactive; Activity (Lipid bilayer [8]): Non-Toxic; Activity (Lipid bilayer [9]): inactive; Activity [10]: Non-Toxic; Activity (Lipid bilayer [11]): Active; Activity (Lipid bilayer [12]): Active
4 | H-FILKRSYPQYY-NH2 | 410 µM | > 700 µg/mL | 23 mV | Non-Toxic | Activity (Erythrocyte): Non-Toxic; Activity [10]: Non-Toxic
5 | H-NLVGSLLGGILKK-NH2 | 460 µM | > 700 µg/mL | 18 mV | Non-Toxic | Activity (Erythrocyte): Non-Toxic
6 | H-NNEENELRRRVSFNRAVIHSLLG-NH2 | > 700 µg/mL | > 700 µg/mL | – | – | –
7 | H-VSFNRAVIHSLLG-NH2 | > 700 µg/mL | > 700 µg/mL | – | – | –
8 | H-YYQVSEERRRDLASLARLYALAR-NH2 | > 700 µg/mL | > 700 µg/mL | – | – | –
